Starred links: 1 amine or outer side, 2 acyl side, 3 side chain; linkers in the order of their positions; H or OH if unused. Positions of bridges follow the written chain, without caps; N, C: chain ends. Residues, ends and D or L forms follow the SMILES beside them. *: point of attachment. C18 diacid = O=C(O)CCCCCCCCCCCCCCCCC(=O)*; γGlu = O=C(O)[C@H](CCC(=O)[*:2])N[*:1]; AEEA = NCCOCCOCC(=O)O
Experiment: Accelerated chemical stability (RP-UPLC recovery and LCMS degradation pattern, 37° C.)
Assay type: physicochemical
Design: Isomers TZ / Isomers 2 W / Loss of 18 amu TZ / Loss of 18 amu 2 W / Fragments TZ / Fragments 2 W / Fragments 1 W / Fragments 3 W / Fragments 4 W / Fragments 5 W / Fragments 6 W / Others 1 W / Others 3 W / Others 4 W / Others 5 W / Others 6 W / Isomers 1 W / Isomers 3 W / Isomers 4 W / Isomers 5 W / Isomers 6 W / Loss of 18 amu 1 W / Loss of 18 amu 3 W / Loss of 18 amu 4 W / Loss of 18 amu 5 W / Loss of 18 amu 6 W: unit not given here
Conditions: LCMS, 8 mM sodium phosphate, 250 mM glycerol, pH 6.5
Experimental: In order to determine the chemical stability of CNP compounds in formulation, samples of CNP compounds in buffer were exposed to accelerated chemical degradation by heating. The stability of a given peptide was assessed by measuring recovery of intact peptide by quantification by RP-UPLC. To assess the chemical degradation pattern samples were also analysed by LC-MS.
Sample preparation: Samples for the 2 week study were prepared according to the principles described in Example 5.
Samples for the 6 week study were prepared by dissolving lyophilized peptide in buffer (8 mM phosphate, 250 mM glycerol, pH 7.4) to a nominal peptide concentration of 5000 nmol/ml followed by pH adjustment with 0.1 N HCl to pH 6.5.
Incubation: For the 2 week study a time-zero (TZ) sample was pulled and stored at −18° C. and the remaining volume was incubated at 37° C. Samples were pulled and stored at −18° C. after 2 weeks of incubation. Frozen samples were thawed, diluted to about 200 nmol/mL and the extent of chemical degradation was determined using LCMS as described.
For the 6 week study a time-zero (TZ) sample was pulled and stored at −18° C. and the remaining volume was incubated at 37° C. Samples were pulled on a weekly basis and stored at −18° C. until the last sampling time point at 6 weeks. Frozen samples were thawed, diluted to about 200 nmol/mL and the extent of chemical degradation was determined using RP-UPLC and LCMS as described.
Analysis of peptide recovery by RP-UPLC: The RP-UPLC method was performed on a Waters ACQUITY H-CLASS UPLC system fitted with a PDA detector. Separation was carried out on an ACQUITY UPLC BEH C8 Column (130 Å, 1.7 μm, 2.1 mm×150 mm) operating at a column temperature of 50° C. with eluent A (19.59 mM NH4H2PO4 41.71 mM (NH4)2HPO4, pH 6.5 and MeCN 9:1 v:v) and eluent B (80% MeCN in water). UV-detection was carried out at 214 nm. The analysis was performed by injection of 3 μL of sample onto the column which was eluted with a 1-step linear gradient of eluents A and B from 27 to 30% B over 20 minutes followed by a wash at 95% B over 2 minutes followed by a re-equilibration phase for 7 minutes at a constant flow rate of 0.3 mL/min. This yielded an analysis time of 30 minutes per sample. The area of the peak corresponding to intact CNP compound was given on a percentage scale relative to the total peptide peak area.
Analysis of chemical degradation patterns by LCMS: Samples were analysed on a […] UPLC from Thermo Scientific, using a Waters Acquity C18 reversed-phase column, 300 Å, […] particles 1 mm×150 mm. The compounds were separated by a linear gradient of solvent B from 5% to 55% over 48 minutes, using solvent A: water, 0.1% formic acid with 0.02% TFA and solvent B: acetonitrile, 0.1% formic acid with 0.02% TFA. Mass spectra were acquired by a Q Exactive Plus hybrid Quadrupole-Orbitrap mass spectrometer, BioPharma option (Thermo Scientific) interfaced with H-ESI II ion source. Data acquisitions were performed with a m/z 500 to 2000 scan range and a resolution of 30000.
The data list was aggregated into a summed table of the compounds. The table headers were defined as follows: […]
Results: The results from LCMS analysis of a 2 week accelerated degradation study on several CNP compounds of the present invention are summarised in Table 12. The results from RP-UPLC and LCMS analysis of a 6 week accelerated degradation study on CNP compound 9482 (Chem. 137) is summarised in Table 13 and Table 14 respectively.

SMILES: CC[C@H](C)[C@@H]1NC(=O)[C@H](CCCNC(=N)N)NC(=O)[C@H](CC(=O)O)NC(=O)[C@H](CC(C)C)NC(=O)[C@@H]2CCCN2C(=O)[C@H](CC(C)C)NC(=O)CNC(=O)[C@H](Cc2ccccc2)NC(=O)[C@@H](NC(=O)CNC(=O)[C@H](CCC(N)=O)NC(=O)[C@H](CO)NC(=O)[C@H](CC(C)C)NC(=O)CNC(=O)[C@H](CCCCN)NC(=O)[C@H](CCCCN)NC(=O)[C@H](CCC(N)=O)NC(=O)[C@H](C)NC(=O)CNC(=O)[C@H](CCCCN)NC(=O)[C@H](Cc2ccc(O)cc2)NC(=O)[C@H](CCCCN)NC(=O)[C@H](CCCNC(=N)N)NC(=O)[C@H](C)NC(=O)COCCOCCNC(=O)COCCOCCNC(=O)COCCOCCNC(=O)COCCOCCNC(=O)CC[C@H](NC(=O)CC[C@H](NC(=O)CC[C@H](NC(=O)CC[C@H](NC(=O)CC[C@H](NC(=O)CCCCCCCCCCCCCCCCC(=O)O)C(=O)O)C(=O)O)C(=O)O)C(=O)O)C(=O)O)CSSC[C@@H](C(=O)O)NC(=O)CNC(=O)[C@H](CC(C)C)NC(=O)CNC(=O)[C@H](CO)NC(=O)[C@H](CC(C)C)NC(=O)[C@H](CO)NC(=O)CNC1=O [Compound 9407] ({C18 diacid-γGlu-γGlu-γGlu-γGlu-γGlu-AEEA-AEEA-AEEA-AEEA}-ARKYKGAQKKGLSQGCFGLPLDRIGSLSGLGC-OH; disulfide 16-32)
- Fragments 2 W (2 weeks at 37° C.): 0.7
- Isomers 2 W (2 weeks at 37° C.): 1.1
- Loss of 18 amu 2 W (2 weeks at 37° C.): 0
- Others 2 W (2 weeks at 37° C.): 0.3%
- Fragments TZ (time zero): 0
- Isomers TZ (time zero): 0
- Loss of 18 amu TZ (time zero): 0
- Others TZ (time zero): 0.1%

Reference: patent US20240209028A1, “CNP COMPOUNDS” (priority 2022, published 2024)
